Assay [1] deals with serotonin (5HT) uptake. Nature of the assay: Inhibition of 5HT uptake in vitro: synaptosomal uptake of 3H-serotonin in rat cortical synaptosomes. Conditions: 50 nM 3H-5HT, 37° C., 5 min. The format is biochemical, rat (male Sprague-Dawley). As to the method: (§1) This general procedure is set forth by Wong et al., in Drug Development Research 6:397-403 (1985).
(§2) Male Sprague-Dawley rats (110-150 g) from Harlan Industries (Cumberland, IN) were fed a Purina Chow ad libitum for at least 3 days before being used in the studies. Rats were killed by decapitation. Whole brains were removed and dissected. Cerebral cortex was homogenized in 9 volumes of a medium containing 0.32 M sucrose and 10 mM glucose. Crude synaptosomal preparations were isolated after differential centrifugation at 1,000 g for 10 min. and 17,000 g for 28 min. The final pellets were suspended in the same medium and kept in ice until use within the same day.
(§3) Synaptosomal uptake of ^3 H-serotonin(^3 H-5hydroxytryptamine, ^3 H-5HT) and ^14 C-l-norepinephrine (^14 C-NE) was determined as follows. Cortical synaptosomes (equivalent to 1 mg of protein) were incubated at 37° C. for 5 min in 1 ml of Krebs-bicarbonate medium containing also 10 mM glucose, 0.1 mM iproniazid, 1 mM ascorbic acid, 0.17 mM EDTA, 50 nM ^3 H-5HT and 100 nM ^14 C-NE The reaction mixture was immediately diluted with 2 ml of ice-chilled Krebs-bicarbonate buffer and filtered under vacuum with a cell harvester (Brandel, Gaithersburg, MD). Filters were rinsed twice with approximately 5 ml of ice-chilled 0.9% saline and were transferred to a counting vial containing 10 ml of scintillation fluid (PCS, Amersham, Arlington Heights, IL). Radioactivity was measured by a liquid scintillation spectrophotometer. Accumulation of ^3 H-5HT and ^14 C-NE at 4° C. represented the background and was subtracted from all samples.

Assay [2] concerns norepinephrine (NE) uptake. Nature of the assay: Inhibition of norepinephrine uptake in vitro: synaptosomal uptake of 14C-l-norepinephrine in rat cortical synaptosomes. The format is biochemical, rat (male Sprague-Dawley). As to conditions: at 1000 nM, 100 nM 14C-NE, 37° C., 5 min. As to the method: as §1, §2, §3

Counter-ions that a name gives are not always drawn.

In turn, `CN(C)CCC(Oc1ccc(C(F)(F)F)cc1)c1cccs1` (centres unmarked) [Example 18, N,N-Dimethyl-3-[4-(trifluoromethyl)phenoxy]-3-(-22-thienyl)propanamine oxalate] came in with a half-maximal inhibitory concentration (IC50) in assay [1] of 190 nM. In addition, the “percent inhibition at 1000 nM, NE (number in parentheses)” value in assay [2] is listed as 15%.

In general, IC50 refers to the concentration that inhibits the measured activity by half. The low end stands for inhibition by little substance, the high end for a need for much substance.

(Values after patent US5023269A, “3-aryloxy-3-substituted propanamines” (Eli Lilly and Company, priority 1990, dated 1991).)
